Tested on: Hsc70
Test: Detection of Hsc70 gene expression level upon action of compound on 2.2.15 cells (real-time fluorescent quantified PCR)
Assay type: cell-based
Parameters: Hsc70 mRNA / Hsc70 down-regulation rate (%): unit not given here
Conditions: 2.2.15 cells; down-regulation of liver cell Hsc70 gene
Description: 2.2.15 cells (purchased from Vertex Pharmaceutical Co., USA) in a number of 1×10^6 were inocubated to 6-well plate, cultured in a culture medium containing 10% fetal calf serum for 24 hr, the original culture medium was discarded, replaced with a culutre medium containing 400 μg/ml OMTR, which was used as control. Compounds were firstly dissolved in MEM to form 20 mg/ml mother liquid, which was diluted with culture medium when used and then applied to cells. The compounds of Examples 1-114 were separately used for treatment for 12, 24, 36 hr, then cells were harvested for extraction of RNA and DNA, then the changes of Hsc70 mRNA and HBV DNA were detected by real-time fluorescent quantified PCR.

13,14-diacetyloxy matrine [Compound 9c] was tested. Which “Hsc70 mRNA” value did it give?
Its value is under 10.

With O=C1CCC[C@@H]2[C@H]3CCC[N+]4([O-])CCC[C@@H](CN12)[C@@H]34 (some centres unmarked) [Compound 1, reference compound] as the compound, how does the “Hsc70 mRNA” value read?
The value was 55.0 ± 0.10.

How did the “Hsc70 mRNA” value turn out when O=C1CCC[C@@H]2[C@H]3CCCN4CCC[C@@H](CN12)[C@@H]34 [Compound 2, reference compound] was run?
Its value is 52.4 ± 0.17.

Which “Hsc70 mRNA” value does the source give for O=C1C=CCC2C3CCCN4CCCC(CN12)C34 (centres unmarked) [Compound 3, reference compound] here?
The value was 21.6 ± 0.13.

O=C1C=CCC2C3CCC[N+]4([O-])CCCC(CN12)C34 (centres unmarked) [Compound 4, oxidized sophocarpine] was tested. Which “Hsc70 mRNA” value did it give?
Its value is 15.3 ± 0.21.

How did the “Hsc70 mRNA” value turn out when COC1CC(=O)N2CC3CCCN4CCCC(C34)C2C1 (centres unmarked) [Compound 6a, 13-methoxy matrine] was run?
The value was 48.6 ± 0.16.

For O=C1CC(OCc2ccccc2)CC2C3CCCN4CCCC(CN12)C34 (centres unmarked) [Compound 6c, 13-benzyloxy matrine], which “Hsc70 mRNA” value is on record?
The value was 24.7 ± 0.10.

O=C(OC1CC(=O)N2C[C@@H]3CCCN4CCC[C@@H]([C@H]34)[C@H]2C1)c1ccccc1 (some centres unmarked) [Compound 6d, 13-benzoyloxy matrine] was tested. Which “Hsc70 mRNA” value did it give?
The value was 51.0 ± 0.11.

O=C1CC(C[N+](=O)[O-])CC2C3CCCN4CCCC(CN12)C34 (centres unmarked) [Compound 7a, 13-nitromethyl matrine] was tested. Which “Hsc70 mRNA” value did it give?
The value was 35.8 ± 0.09.

With CNC1CC(=O)N2C[C@@H]3CCCN4CCC[C@@H]([C@H]34)[C@H]2C1 (some centres unmarked) [Compound 7b, 13-methylaminomatrine] as the compound, how does the “Hsc70 mRNA” value read?
Its value is 40.1 ± 0.09.

How did the “Hsc70 mRNA” value turn out when COC1CC2C3CCCN4CCCC(CN2C(=O)C1OC)C34 (centres unmarked) [Compound 9a, 13,14-dimethoxy matrine] was run?
Its value is 39.3 ± 0.20.

With O=C1C(OCc2ccccc2)C(OCc2ccccc2)CC2C3CCCN4CCCC(CN12)C34 (centres unmarked) [Compound 9b, 13,14-dibenzyloxy matrine] as the compound, how does the “Hsc70 mRNA” value read?
Its value is 45.4 ± 0.11.

With O=C(OC1CC2C3CCCN4CCCC(CN2C(=O)C1OC(=O)c1ccc(F)c([N+](=O)[O-])c1)C34)c1ccc(F)c([N+](=O)[O-])c1 (centres unmarked) [Compound 9d, 13,14-di(4-fluoro-3-nitro) benzoyloxy matrine] as the compound, how does the “Hsc70 mRNA” value read?
Its value is 30.8 ± 0.06.

How did the “Hsc70 mRNA” value turn out when CC(=O)OC1CC2C3CCCN4CCCC(CN2C(=O)C1O)C34 (centres unmarked) [Compound 9e, 14-hydroxyl-13-acetyloxy matrine] was run?
The value was 37.1 ± 0.16.

For O=C(CCl)OC1CC2C3CCCN4CCCC(CN2C(=O)C1O)C34 (centres unmarked) [Compound 9f, 14-hydroxyl-13-chloroacetyloxy matrine], which “Hsc70 mRNA” value is on record?
Its value is 88.2 ± 0.21.

For O=C(OC1CC2C3CCCN4CCCC(CN2C(=O)C1O)C34)c1ccccc1 (centres unmarked) [Compound 9h, 14-hydroxyl-13-benzoyloxy matrine], which “Hsc70 mRNA” value is on record?
Its value is 34.5 ± 0.10.

With O=C(OC1CC2C3CCCN4CCCC(CN2C(=O)C1O)C34)c1ccc(F)c([N+](=O)[O-])c1 (centres unmarked) [Compound 9i, 14-hydroxyl-13-(4-fluoro-3-nitro)benzoyloxy matrine] as the compound, how does the “Hsc70 mRNA” value read?
Its value is 43.4 ± 0.08.

CC(=O)OC1CC2C3CCCN4CCCC(CN2C(=O)C1O)C34 (centres unmarked) [Compound 9j, 14-hydroxyl-13-acetyloxy matrine] was tested. Which “Hsc70 mRNA” value did it give?
Its value is 54.8 ± 0.21.

Same assay, conditions: 2.2.15 cells; relative to OMT (= 1)

Which “Hsc70 inhibition rate (down-regulation of Hsc70 expression activity, expressed in relative OMT ratio)” value does the source give for Cc1ccc(S(=O)(=O)N2CC3CCCN4CCCC(C34)C2CCCC(=O)O)cc1 (centres unmarked) [DM-102, N-(4-methylbenzenesulfonyl) matrinic acid] here?
The value was 1.1.

For O=C(O)CCCC1C2CCCN3CCCC(CN1C(=O)CCl)C23 (centres unmarked) [DM-104, N-chloroacetyl matrinic acid], which “Hsc70 inhibition rate (down-regulation of Hsc70 expression activity, expressed in relative OMT ratio)” value is on record?
The value was −7.

Which “Hsc70 inhibition rate (down-regulation of Hsc70 expression activity, expressed in relative OMT ratio)” value does the source give for Cc1cccc(OCC(=O)N2CC3CCCN4CCCC(C34)C2CCCC(=O)O)c1 (centres unmarked) [DM-104a, N-(2-m-methylphenoxy)acetyl matrinic acid] here?
The value was −2.98.

With O=C(O)CCCC1C2CCCN3CCCC(CN1C(=O)CO)C23 (centres unmarked) [DM-105, N-(2-hydroxyl)acetylmatrinic acid] as the compound, how does the “Hsc70 inhibition rate (down-regulation of Hsc70 expression activity, expressed in relative OMT ratio)” value read?
Its value is under 10.

With Cc1cccc(OC(C)C(=O)N2CC3CCCN4CCCC(C34)C2CCCC(=O)O)c1 (centres unmarked) [DM-106, N-(2-m-methylphenoxy)propionylmatrinic acid] as the compound, how does the “Hsc70 inhibition rate (down-regulation of Hsc70 expression activity, expressed in relative OMT ratio)” value read?
The value was 1.67.

For O=CN1CC2CCCN3CCCC(C1CCCC(=O)O)C23 (centres unmarked) [DM-106a, N-formylmatrinic acid], which “Hsc70 inhibition rate (down-regulation of Hsc70 expression activity, expressed in relative OMT ratio)” value is on record?
Its value is −54.

Which “Hsc70 inhibition rate (down-regulation of Hsc70 expression activity, expressed in relative OMT ratio)” value does the source give for O=C(O)CCCC1C2CCCN3CCCC(CN1C(=O)c1ccccc1)C23 (centres unmarked) [DM-107, N-benzoyl matrinic acid] here?
The value was 1.04.

For O=C(O)CCCC1C2CCCN3CCCC(CN1Cc1ccccc1)C23 (centres unmarked) [DM-108, N-benzylmatrinic acid], which “Hsc70 inhibition rate (down-regulation of Hsc70 expression activity, expressed in relative OMT ratio)” value is on record?
Its value is 1.25.

For O=C(O)CCCC1C2CCCN3CCCC(CN1S(=O)(=O)c1ccccc1)C23 (centres unmarked) [DM-109, N-benzenesulfonyl matrinic acid], which “Hsc70 inhibition rate (down-regulation of Hsc70 expression activity, expressed in relative OMT ratio)” value is on record?
The value was under 10.

For O=C(O)CCCC1C2CCCN3CCCC(CN1C(=O)C=Cc1ccccc1)C23 (centres unmarked) [DM-110, N-cinnamoyl matrinic acid], which “Hsc70 inhibition rate (down-regulation of Hsc70 expression activity, expressed in relative OMT ratio)” value is on record?
Its value is under 10.

C[N+]1(C)CC2CCCN3CCCC(C23)C1CCCC(=O)[O-] (centres unmarked) [DM-111, N,N-dimethyl matrinic acid] was tested. Which “Hsc70 inhibition rate (down-regulation of Hsc70 expression activity, expressed in relative OMT ratio)” value did it give?
Its value is 0.25.

With CCN1CC2CCCN3CCCC(C1CCCC(=O)O)C23 (centres unmarked) [DM-112, N-ethyl matrinic acid] as the compound, how does the “Hsc70 inhibition rate (down-regulation of Hsc70 expression activity, expressed in relative OMT ratio)” value read?
The value was under 10.

CCCN1CC2CCCN3CCCC(C1CCCC(=O)O)C23 (centres unmarked) [DM-113, N-propyl matrinic acid] was tested. Which “Hsc70 inhibition rate (down-regulation of Hsc70 expression activity, expressed in relative OMT ratio)” value did it give?
The value was under 10.

Which “Hsc70 inhibition rate (down-regulation of Hsc70 expression activity, expressed in relative OMT ratio)” value does the source give for O=C(O)CCCC1C2CCCN3CCCC(CN1CC1CC1)C23 (centres unmarked) [DM-115, N-cyclopropylmethyl matrinic acid] here?
Its value is −33.

With O=C(O)CCCC1C2CCCN3CCCC(CN1CCO)C23 (centres unmarked) [DM-117, N-(2-hydroxyl)ethyl matrinic acid] as the compound, how does the “Hsc70 inhibition rate (down-regulation of Hsc70 expression activity, expressed in relative OMT ratio)” value read?
The value was 0.84.

For COc1cccc(CN2CC3CCCN4CCCC(C2CCCC(=O)O)C34)c1 (centres unmarked) [DM-142, N-(3-methoxy)benzyl matrinic acid], which “Hsc70 inhibition rate (down-regulation of Hsc70 expression activity, expressed in relative OMT ratio)” value is on record?
The value was 1.07.

With C=C(C)[C@H](CCC(C)(C)O)Cc1c(O)cc(OC)c2c1O[C@H](c1ccc(O)cc1O)CC2=O [DM-200, kurarinol] as the compound, how does the “Hsc70 inhibition rate (down-regulation of Hsc70 expression activity, expressed in relative OMT ratio)” value read?
The value was 0.81.

With O=C(O)CCCC1NCC2CCC[N+]3([O-])CCCC1C23 (centres unmarked) [DM-1001, N-oxidized matrinic acid] as the compound, how does the “Hsc70 inhibition rate (down-regulation of Hsc70 expression activity, expressed in relative OMT ratio)” value read?
The value was 0.92.

Which “Hsc70 inhibition rate (down-regulation of Hsc70 expression activity, expressed in relative OMT ratio)” value does the source give for O=C(O)CCCC1C2CCC[N+]3([O-])CCCC(CN1Cc1ccccc1)C23 (centres unmarked) [DM-1081, N-benzyl oxymatrinic acid] here?
The value was 1.26.

How did the “Hsc70 inhibition rate (down-regulation of Hsc70 expression activity, expressed in relative OMT ratio)” value turn out when O=C(O)CCCC1C2CCC[N+]3([O-])CCCC(CN1CC1CC1)C23 (centres unmarked) [DM-1151, N-cyclopropylmethyl oxymatrinic acid] was run?
Its value is 0.52.

— patent US20130190345A1, “MATRINIC ACID/MATRINE DERIVATIVES AND PREPARATION METHODS AND USES THEREOF” (priority 2010, published 2013)
